Data taken from ChEMBL document CHEMBL1132706 (J Med Chem, 1999).

Tests used:
[1] = Compound was evaluated for the relative inhibition of Viral infection in MAGI cells at concentration 10 mM, using assay 1; type: functional, Homo sapiens
CEM-SS [2] = test: Compound was evaluated for the effect of Order of Addition on Cytoprotection against HIV1-RF at dilution 333,Pretreat and add 1 uM; type: functional, Homo sapiens
CEM-SS [3] = test: Compound was evaluated for the effect of Order of Addition on Cytoprotection against HIV1-RF at dilution 333, Add at infection; type: functional, Homo sapiens
[4] = Compound was evaluated for the relative inhibition of Viral infection in MAGI cells at concentration 10 mM, using assay 3; type: functional, Homo sapiens
[5] = Compound was evaluated for the relative inhibition of Viral infection in MAGI cells at concentration 1 mM, using assay 1; type: functional, Homo sapiens
CEM-SS [6] = test: Compound was evaluated for the effect of Order of Addition on Cytoprotection against HIV1-RF at dilution 333, Pretreat with 100 uM
CEM-SS [7] = test: Concentration of compound required to protect 50% of CEM-SS cells against retroviral cytopathic effects of HIV-RF on 9th day at dil 1:50; type: functional, cell-based; conditions: Homo sapiens
CEM-SS [8] = test: Compound was evaluated for the effect of Order of Addition on Cytoprotection against HIV1-RF at dilution 333, Pretreat and add 10 uM; type: functional, Homo sapiens
CEM-SS [9] = test: Compound was evaluated for the effect of Order of Addition on Cytoprotection against HIV1-RF at dilution 1000, Pretreat with 100 uM; type: functional, Homo sapiens
CEM-SS [10] = test: Concentration of compound required to protect 50% of CEM-SS cells against retroviral cytopathic effects of HIV-RF on 6th day at dil 1:50; type: functional, cell-based; conditions: Homo sapiens
[11] = Compound was evaluated for the relative inhibition of Viral infection in MAGI cells at concentration 10mM, using assay 2; type: functional, Homo sapiens
[12] = target: T1, Human immunodeficiency virus type 1 integrase (Human immunodeficiency virus 1, UniProt Q7ZJM1)
Description: Inhibition of HIV-1 integrase by radiolabeled oligonucleotide-based assay integration

CEM-SS [13] = test: Concentration of compound required to protect 50% of CEM-SS cells against retroviral cytopathic effects of HIV-RF on 9th day at dil 1:200; type: functional, cell-based; conditions: Homo sapiens
CEM-SS [14] = test: Compound was evaluated for the effect of Order of Addition on Cytoprotection against HIV1-RF at dilution 100, Pretreat and add 1 uM; type: functional, Homo sapiens
CEM-SS [15] = test: Concentration of compound required to protect 50% of CEM-SS cells against retroviral cytopathic effects of HIV-RF on 3rd day at dil 1:200; type: functional, cell-based; conditions: Homo sapiens
[16] = Compound was evaluated for the relative Viral infection in MAGI cells at concentration 100 mM, using assay 2
CEM-SS [17] = test: Compound was evaluated for the effect of Order of Addition on Cytoprotection against HIV1-RF at dilution 100, Pretreat and add 10 uM; type: functional, Homo sapiens
MT4 [18] = test: Concentration of compound required to reduce MT-4 cell viability by 50%; type: functional, cell-based; conditions: Homo sapiens
MT4 [19] = test: Concentration of compound required to protect 50% of MT-4 cells against retroviral cytopathic effects of HIV-2 (ROD); type: functional, cell-based; conditions: Homo sapiens
CEM-SS [20] = test: Concentration of compound required to protect 50% of CEM-SS cells against retroviral cytopathic effects of HIV-RF on 3rd day at dil 1:100; type: functional, cell-based; conditions: Homo sapiens
CEM-SS [21] = test: Compound was evaluated for the effect of Order of Addition on Cytoprotection against HIV1-RF at dilution 100, Pretreat with 100 uM; type: functional, Homo sapiens
CEM-SS [22] = test: Concentration of compound required to protect 50% of CEM-SS cells against retroviral cytopathic effects of HIV-RF on 6th day at dil 1:200; type: functional, cell-based; conditions: Homo sapiens
CEM-SS [23] = test: Compound was evaluated for the effect of Order of Addition on Cytoprotection against HIV1-RF at dilution 1000, Pretreat and add 10 uM; type: functional, Homo sapiens
[24] = Compound was evaluated for the relative inhibition of Viral infection in MAGI cells at concentration 0.1 uM, using assay 3
CEM-SS [25] = test: Compound was evaluated for the effect of Order of Addition on Cytoprotection against HIV1-RF at dilution 1000, Add at infection; type: functional, Homo sapiens
[26] = target: T1, Human immunodeficiency virus type 1 integrase; remark: listed apart in the source
Description: Compound was evaluated for the inhibitory concentration against HIV-1 integrase by radiolabeled oligonucleotide-based assay 3''-processing

CEM-SS [27] = test: Concentration of compound required to protect 50% of CEM-SS cells against retroviral cytopathic effects of HIV-RF on 9th day at dil 1:100; type: functional, cell-based; conditions: Homo sapiens
MT4 [28] = test: Concentration of compound required to protect 50% of MT-4 cells against retroviral cytopathic effects of HIV-1 ([…]); type: functional, cell-based; conditions: Homo sapiens
CEM-SS [29] = test: Compound was evaluated for the effect of Order of Addition on Cytoprotection against HIV1-RF at dilution 100, Add at infection; type: functional, Homo sapiens
CEM-SS [30] = test: Compound was evaluated for the effect of Order of Addition on Cytoprotection against HIV1-RF at dilution 1000, Pretreat and add 1 uM; type: functional, Homo sapiens
CEM-SS [31] = test: Concentration of compound required to protect 50% of CEM-SS cells against retroviral cytopathic effects of HIV-RF on 9th day at dil 1:400; type: functional, cell-based; conditions: Homo sapiens
CEM-SS [32] = test: Concentration of compound required to protect 50% of CEM-SS cells against retroviral cytopathic effects of HIV-RF on 6th day at dil 1:100; type: functional, cell-based; conditions: Homo sapiens
CEM-SS [33] = test: Concentration of compound required to protect 50% of CEM-SS cells against retroviral cytopathic effects of HIV-RF on 3rd day at dil 1:50; type: functional, cell-based; conditions: Homo sapiens
CEM-SS [34] = test: Compound was evaluated for the cytoprotection of CEM-SS cells by XTT cytoprotection assay through the NCI AIDS Screen; type: functional, cell-based; conditions: Homo sapiens
[35] = Compound was evaluated for the relative inhibition of Viral infection in MAGI cells at concentration 100 mM, using assay 1; type: functional, Homo sapiens
CEM-SS [36] = test: Concentration of compound required to protect 50% of CEM-SS cells against retroviral cytopathic effects of HIV-RF on 6th day at dil 1:400; type: functional, cell-based; conditions: Homo sapiens
CEM-SS [37] = test: Compound was evaluated for the effect of Order of Addition on Cytoprotection against HIV-1RF at dilution 333, Pretreat only (100 uM); type: functional, Homo sapiens
CEM-SS [38] = test: Compound was evaluated for the effect of Order of Addition on Cytoprotection against HIV-1RF at dilution 1000, Pretreat only (100 uM); type: functional, Homo sapiens
CEM-SS [39] = test: Compound was evaluated for the effect of Order of Addition on Cytoprotection against HIV-1RF at dilution 100, Pretreat only (100 uM); type: functional, Homo sapiens
MT4 [40] = test: Concentration of compound required to protect 50% of MT-4 cells against retroviral cytopathic effects by HIV-2 (ROD); type: functional, cell-based; conditions: Homo sapiens
CEM-SS [41] = test: Compound was evaluated for the cytoprotection by XTT cytoprotection assay through the NCI AIDS Screen; type: functional, cell-based; conditions: Homo sapiens
[42] = Compound was evaluated for the relative inhibition of Viral infection in MAGI cells at concentration 0.1 mM, using assay 3; type: functional, Homo sapiens
MT4 [43] = test: Concentration of compound required to protect 50% of MT-4 cells against retroviral cytopathic effects by HIV-1 ([…]); type: functional, cell-based; conditions: Homo sapiens
CEM-SS [44] = test: Compound was evaluated for the effect of Order of Addition on Cytoprotection against HIV-1RF at dilution 100, Pretreat with 100 uM; type: functional, Homo sapiens
CEM-SS [45] = test: Compound was evaluated for the effect of Order of Addition on Cytoprotection against HIV-1RF at dilution 100, Pretreat and add 10 uM; type: functional, Homo sapiens
CEM-SS [46] = test: Compound was evaluated for the effect of Order of Addition on Cytoprotection against HIV-1RF at dilution 1000, Add at infection; type: functional, Homo sapiens
CEM-SS [47] = test: Compound was evaluated for the effect of Order of Addition on Cytoprotection against HIV-1RF at dilution 1000, Pretreat and add 10 uM; type: functional, Homo sapiens
CEM-SS [48] = test: Compound was evaluated for the effect of Order of Addition on Cytoprotection against HIV-1RF at dilution 100, Add at infection; type: functional, Homo sapiens
CEM-SS [49] = test: Compound was evaluated for the effect of Order of Addition on Cytoprotection against HIV-1RF at dilution 1000, Pretreat with 100 uM; type: functional, Homo sapiens
CEM-SS [50] = test: Compound was evaluated for the effect of Order of Addition on Cytoprotection against HIV-1RF at dilution 333,Pretreat and add 1 uM; type: functional, Homo sapiens
CEM-SS [51] = test: Compound was evaluated for the effect of Order of Addition on Cytoprotection against HIV-1RF at dilution 100, Pretreat and add 1 uM; type: functional, Homo sapiens
CEM-SS [52] = test: Compound was evaluated for the effect of Order of Addition on Cytoprotection against HIV-1RF at dilution 1000, Pretreat and add 1 uM; type: functional, Homo sapiens
CEM-SS [53] = test: Compound was evaluated for the effect of Order of Addition on Cytoprotection against HIV-1RF at dilution 333, Pretreat with 100 uM; type: functional, Homo sapiens
CEM-SS [54] = test: Compound was evaluated for the effect of Order of Addition on Cytoprotection against HIV-1RF at dilution 333, Pretreat and add 10 uM; type: functional, Homo sapiens
CEM-SS [55] = test: Compound was evaluated for the effect of Order of Addition on Cytoprotection at dilution 333, Add at infection; type: functional, Homo sapiens

T1 sequence (Q7ZJM1 whole entry): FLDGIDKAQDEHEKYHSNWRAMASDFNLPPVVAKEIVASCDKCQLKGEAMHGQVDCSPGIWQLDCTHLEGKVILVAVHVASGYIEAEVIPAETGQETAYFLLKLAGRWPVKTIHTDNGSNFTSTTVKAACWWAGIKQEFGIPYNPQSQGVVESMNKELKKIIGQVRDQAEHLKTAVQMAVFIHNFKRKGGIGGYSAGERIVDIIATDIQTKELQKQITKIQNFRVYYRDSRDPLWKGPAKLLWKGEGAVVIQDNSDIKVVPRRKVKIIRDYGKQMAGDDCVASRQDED

SMILES: CC(=O)Oc1ccc(/C=C/C(=O)O[C@H](C(=O)O)[C@H](OC(=O)/C=C/c2ccc(OC(C)=O)c(OC(C)=O)c2)C(=O)O)cc1OC(C)=O
- relative infection [1]: 88%
- Control (CEM-SS [2]): 57%
- Control (CEM-SS [3]): 81%
- relative infection [4]: 55%
- relative infection [5]: 83%
- Control (CEM-SS [6]): 163%
- EC50 (CEM-SS [7]): > 50 µM
- Control (CEM-SS [8]): 39%
- Control (CEM-SS [9]): 51%
- EC50 (CEM-SS [10]): > 50 µM
- relative infection [11]: 76%
- IC50 [12]: 4.6 µM
- EC50 (CEM-SS [13]): > 50 µM
- Control (CEM-SS [14]): 100%
- EC50 (CEM-SS [15]): > 50 µM
- relative infection [16]: 5%
- Control (CEM-SS [17]): 149%
- IC50 (MT4 [18]): 60 µM
- EC50 (MT4 [19]): 5.1 µM
- EC50 (CEM-SS [20]): > 50 µM
- Control (CEM-SS [21]): 120%
- EC50 (CEM-SS [22]): 22.6 µM
- Control (CEM-SS [23]): 38%
- relative infection [24]: 91%
- Control (CEM-SS [25]): 60%
- IC50 [26]: 33.3 µM
- EC50 (CEM-SS [27]): > 50 µM
- EC50 (MT4 [28]): 3.9 µM
- Control (CEM-SS [29]): 141%
- Control (CEM-SS [30]): 17%
- EC50 (CEM-SS [31]): 29.4 µM
- EC50 (CEM-SS [32]): > 50 µM
- EC50 (CEM-SS [33]): > 50 µM
- EC50 (CEM-SS [34]): 21 µM
- IC50 (CEM-SS [34]): 23 µM
- relative infection [35]: 6%
- EC50 (CEM-SS [36]): 19.6 µM

SMILES: NS(=O)(=O)c1ccc(NC(=O)c2ccccc2SSc2ccccc2C(=O)Nc2ccc(S(N)(=O)=O)cc2)cc1
- Control (CEM-SS [37]): 4%
- Control (CEM-SS [38]): 6%
- Control (CEM-SS [39]): 31%

SMILES: CC(=O)Oc1ccc(/C=C/C(=O)O[C@@H](C(=O)O)[C@@H](OC(=O)/C=C/c2ccc(OC(C)=O)c(OC(C)=O)c2)C(=O)O)cc1OC(C)=O
- relative infection [1]: 73%
- EC50 (MT4 [40]): 10.1 µM
- relative infection [4]: 42%
- relative infection [5]: 48%
- EC50 (CEM-SS [41]): 16 µM
- relative infection [11]: 50%
- IC50 [12]: 6.2 µM
- relative infection [42]: 85%
- relative infection [16]: 2%
- IC50 (MT4 [18]): 47.1 µM
- IC50 [26]: 9.8 µM
- EC50 (MT4 [43]): 4.1 µM
- IC50 (CEM-SS [34]): 50 µM
- relative infection [35]: 4%

SMILES: O=C(/C=C/c1ccc(O)c(O)c1)O[C@H](C(=O)O)[C@H](OC(=O)/C=C/c1ccc(O)c(O)c1)C(=O)O [CHICORIC ACID]
- Control (CEM-SS [44]): 108%
- Control (CEM-SS [45]): 114%
- Control (CEM-SS [46]): 60%
- Control (CEM-SS [47]): 135%
- Control (CEM-SS [48]): 141%
- Control (CEM-SS [49]): 168%
- Control (CEM-SS [50]): 92%
- Control (CEM-SS [51]): 56%
- Control (CEM-SS [52]): 50%
- Control (CEM-SS [53]): 59%
- Control (CEM-SS [54]): 82%
- Control (CEM-SS [55]): 73%
